In PubChem BioAssay (NCI):
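Protocol summary: plate cells (96-well), add compound at 5 concentrations, incubate 48 h, interpolate endpoints linearly. The concentration for full growth arrest is given as TGI.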

What was measured:
Experiment in all cases: NCI tumour cell line growth inhibition, 48 h
A498 renal = tested on: A498 renal
COLO 205 colon = tested on: COLO 205 colon
HOP-62 NSCLC = tested on: HOP-62 NSCLC
LOX IMVI melanoma = tested on: LOX IMVI melanoma
OVCAR-5 ovarian = tested on: OVCAR-5 ovarian
SK-MEL-2 melanoma = tested on: SK-MEL-2 melanoma
SNB-75 CNS = tested on: SNB-75 CNS
SR leukemia = tested on: SR leukemia
SW-620 colon = tested on: SW-620 colon
TK-10 renal = tested on: TK-10 renal
U251 CNS = tested on: U251 CNS

Compound | TGI (A498 renal) [µM] | TGI (COLO 205 colon) [µM] | TGI (HOP-62 NSCLC) [µM] | TGI (LOX IMVI melanoma) [µM] | TGI (OVCAR-5 ovarian) [µM] | TGI (SK-MEL-2 melanoma) [µM] | TGI (SNB-75 CNS) [µM] | TGI (SR leukemia) [µM] | TGI (SW-620 colon) [µM] | TGI (TK-10 renal) [µM] | TGI (U251 CNS) [µM]
CCOC(=O)C1C(=O)CC(C)(O)C(C(=O)OCC)C1c1ccc(OC)cc1 (stereo not given) | > 100 | > 100 | > 100 | > 100 | > 100 | > 100 | > 100 | > 100 | > 100 | > 100 | > 100
CN(C)N1C(=O)CC2(CCN(CCCC(=O)c3ccc(F)cc3)CC2)C1=O | > 100 | > 100 | > 100 | > 100 | > 100 | > 100 | > 100 | > 100 | > 100 | > 100 | > 100
CC(C)[C@H](NC(=O)[C@@H](O)[C@H](N)Cc1ccccc1)C(=O)N[C@@H](Cc1ccccc1)C(=O)O | > 100 | > 100 | > 100 | > 100 | > 100 | > 100 | > 100 | > 100 | > 100 | > 100 | > 100
Nc1nc(Cl)nc2c1ncn2C1CCC(CO)O1 (stereo not given) | > 100 | > 100 | > 100 | > 100 | > 100 | > 100 | > 100 | > 100 | > 100 | > 100 | > 100
Nc1nc(Cl)cc(NCC2(CO)CCC(OCc3ccccc3)C2)n1 (stereo not given) | 44.4 | 62.7 | > 100 | 46.4 | > 100 | 77.3 | 53.4 | 80.2 | > 100 | 60.5 | > 100
CCOC(=O)C(SCCO)C(C(=O)OCC)n1cc(C)c(=O)[nH]c1=O (stereo not given) | 47.5 | 23.3 | > 85.6 | 19.2 | 32.1 | 51.1 | > 100 | 35.5 | > 43.1 | > 82.5 | 36.5
CC[C@]12C=CCN3CCC4(c5cc(N=Nc6ccc([N+](=O)[O-])cc6)c(OC)cc5N(C)[C@H]4[C@@](O)(C(=O)OC)[C@@H]1OC(C)=O)[C@@H]32 (stereo not given in full) | 77.2 | 42.5 | 43.6 | 47.3 | 28.2 | 43 | 35.1 | 32 | > 100 | 63 | 27.4
CCC(CCCCC1CC[C@H]2CC(=O)C[C@@H]12)OC (stereo not given in full) | > 100 | > 100 | > 100 | > 100 | > 100 | > 100 | > 100 | > 100 | > 100 | > 100 | > 100
CN(CCNC(=O)c1cc(-c2ccccc2)nc2ccccc12)CCNC(=O)c1cc(-c2ccccc2)nc2ccccc12 | 37.6 | 4.71 | > 100 | 16 | > 55.7 | 24.9 | 39.9 | 7.63 | 24.9 | > 100 | 30.9
CC(C)(C)C1=NN=C2c3ccccc3C(=O)C21 (stereo not given) | 99.5 | > 100 | > 100 | > 100 | > 100 | > 100 | > 100 | 83 | > 100 | > 100 | > 100
CCCC[Si](CCCC)(CCCC)O[C@@H](/C=C/C(=O)OCC)[C@H](Cc1ccccc1)O[Si](CCCC)(CCCC)CCCC | > 100 | > 100 | > 100 | > 100 | > 100 | > 100 | > 100 | > 100 | > 100 | > 100 | > 100
O=c1[nH][nH]c(=S)c(=O)[nH]1 | > 100 | > 100 | > 100 | > 100 | > 100 | > 100 | > 100 | > 100 | > 100 | > 100 | > 100
O=C1C(c2c(O)[nH]c3ccc(S(=O)(=O)N(CCO)CCO)cc23)=Nc2ccccc21 | > 100 | > 100 | > 100 | > 100 | > 100 | > 100 | 8.49 | > 100 | > 100 | > 100 | > 100
Cc1ccc(S(=O)(=O)N/N=C2/CC[C@H](C(C)(C)C)C[C@@H]2C)cc1 | 31.6 | 35.4 | 26.9 | 27.9 | 32.5 | 32.4 | 39 | > 100 | 50.7 | 30.4 | 33.5
Cc1ccc2nc(Cl)c(/C=N/N3C(=O)/C(=C/Cc4ccco4)N=C3c3ccccc3)cc2c1 | > 100 | > 100 | > 100 | > 69.3 | > 100 | > 100 | > 92.8 | > 100 | > 100 | 55.5 | > 100
